Like-named read-outs stand apart in the source and are kept apart here. Non-standard residues stand in square brackets, D forms with d. Residues, ends and D or L forms follow the SMILES beside them. *: point of attachment. Arg(NO2) = N=C(NCCC[C@H](N)C(=O)O)N[N+](=O)[O-]; Sta = CC(C)C[C@H](N)[C@@H](O)CC(=O)O; Boc = CC(C)(C)OC(=O)*; NHBn = c1ccc(CN*)cc1
Biological target: T1, renin (Homo sapiens, UniProt P00797)
T1 sequence (P00797 67-406): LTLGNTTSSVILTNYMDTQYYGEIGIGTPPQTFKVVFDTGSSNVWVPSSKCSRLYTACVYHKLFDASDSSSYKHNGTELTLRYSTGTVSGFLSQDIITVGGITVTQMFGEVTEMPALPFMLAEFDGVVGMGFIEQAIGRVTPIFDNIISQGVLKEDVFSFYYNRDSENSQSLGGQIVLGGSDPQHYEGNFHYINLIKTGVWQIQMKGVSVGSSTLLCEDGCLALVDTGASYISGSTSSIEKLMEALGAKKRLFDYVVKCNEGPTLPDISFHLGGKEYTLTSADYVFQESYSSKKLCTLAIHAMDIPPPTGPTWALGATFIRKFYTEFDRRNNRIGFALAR
Assay: in vitro renin inhibitory activity, radioimmunoassay for angiotensin I
Assay type: biochemical
Experimental: The effectiveness of the aforementioned compounds is determined by a test for in vitro renin inhibitory activity. This activity is determined by a standard radioimmunoassay for angiotensin I. In this assay the enzyme, renin, incubated for two hours at 37° in the presence of a substrate, angiotensinogen, generates the product, angiotensin I. Test compounds are added to the incubation mixture.

Compound	IC50 (read-out: IC50) [nM]	also measured
CNC(=S)NCCCC[C@H](NC(=O)C(CC(=O)N1CCOCC1)Cc1cccc2ccccc12)C(=O)N[C@@H](CC1CCCCC1)[C@@H](O)CC(=O)NCCN1CCOCC1 (stereo partly shown)	20	
CCOC(=O)C(NC(=O)C(Cc1cccc2ccccc12)Cc1cccc2ccccc12)C(=O)N[C@@H](CC(C)C)[C@@H](O)CC(=O)N[C@@H](CC(C)C)C(=O)NCc1ccccn1 (stereo partly shown)	13	
CCC(C)CNC(=O)C[C@H](O)[C@H](CC(C)C)NC(=O)C(CC#CCNC(C)=O)NC(=O)C(Cc1cccc2ccccc12)Cc1cccc2ccccc12 (single isomer, unassigned)		IC50: 29 nM
CC(C)C[C@H](NC(=O)C[C@H](O)[C@H](CC(C)C)NC(=O)C(CCCC1CO1)NC(=O)C(Cc1cccc2ccccc12)Cc1cccc2ccccc12)C(=O)NCc1ccccc1 (single isomer, unassigned) [drawing 65]		IC50: 57 nM
CC(C)C[C@H](NC(=O)C[C@H](O)[C@H](CC(C)C)NC(=O)C(CCCC1CO1)NC(=O)C(Cc1cccc2ccccc12)Cc1cccc2ccccc12)C(=O)NCc1ccccc1 (single isomer, unassigned) [drawing 66]		inhibition at 1 µM (at 10^-6 molar concentration, read-out: percent inhibition of renin activity): 47%
CC(C)C[C@H](NC(=O)C[C@H](O)[C@H](CC(C)C)NC(=O)[C@H](CCCNC(=N)N[N+](=O)[O-])NC(=O)[C@H](Cc1ccccc1)NC(=O)OC(C)(C)C)C(=O)NCc1ccccc1 [Example 1, BOC-PHE-ARG(NO2)-STA-LEU-NHCH2 Ph] (Boc-F[Arg(NO2)][Sta]L-NHBn)	63	
CC(C)C[C@H](NC(=O)C[C@H](O)[C@H](CC(C)C)NC(=O)[C@H](CCCN1C(=O)c2ccccc2C1=O)NC(=O)[C@H](Cc1ccccc1)NC(=O)OC(C)(C)C)C(=O)NCc1ccccc1 [Example 4, BOC-PHE-ORN(PHT)-STA-LEU-NHCH2 Ph]	910	
CC[C@H](C)CNC(=O)C[C@H](O)[C@H](CC(C)C)NC(=O)[C@H](CCCCNS(=O)(=O)c1ccc(C)cc1)NC(=O)C(Cc1cccc2ccccc12)Cc1cccc2ccccc12 [Example 41, DNMA-LYS(TOS)-STA-NHCH2 CH(CH3)CH2 CH3]		IC50: 3000 nM
DNMA-LYS(Z)-STA-LEU-NHCH2 Ph		IC50 (renin incubated two hours at 37° with angiotensinogen, molar concentration causing 50% inhibition, read-out: IC50): 2900 nM

Second part, led by results:

IC50 (read-out: IC50) [nM]	Compound	also measured
41	CC[C@H](C)CNC(=O)C[C@H](O)[C@H](CC(C)C)NC(=O)[C@H](CCCCNC(=O)C[S+](C)[O-])NC(=O)C(Cc1cccc2ccccc12)Cc1cccc2ccccc12 (stereo partly shown)	
23	CC[C@H](C)CNC(=O)C[C@H](O)[C@@H](NC(=O)[C@H](CCCCNC(=S)NC)NC(=O)C(Cc1cccc2ccccc12)Cc1cccc2ccccc12)C1CCCCC1	
350	CSC(=NC#N)NCCCC[C@H](NC(=O)C(CC(=O)N1CCOCC1)Cc1cccc2ccccc12)C(=O)N[C@@H](CC(C)C)[C@@H](O)CC(=O)NCCN1CCOCC1 (stereo partly shown)	
420	CC(C)C[C@H](NC(=O)[C@H](CCCCNC(=N)N[N+](=O)[O-])NC(=O)C(CC(=O)N1CCOCC1)Cc1cccc2ccccc12)[C@@H](O)CC(=O)NCCN1CCOCC1 (stereo partly shown)	
560	CNC(=S)NCCCC[C@H](NC(=O)C(CC(=O)N1CCOCC1)Cc1cccc2ccccc12)C(=O)N[C@@H](CC(C)C)[C@@H](O)CC(=O)NCCN1CCOCC1 (stereo partly shown)	
29	CNC(=S)NCCCC[C@H](NC(=O)C(Cc1cccc2ccccc12)Cc1cccc2ccccc12)C(=O)N[C@@H](CC1CCCCC1)[C@@H](O)CC(=O)NCCN1CCOCC1	
120	CNC(=S)NCCCC[C@H](NC(=O)C(Cc1cccc2ccccc12)Cc1cccc2ccccc12)C(=O)N[C@@H](CC(C)C)[C@@H](O)CC(=O)NCCN1CCOCC1	
45	CC(C)C[C@H](NC(=O)[C@H](CCCCNC(=N)N[N+](=O)[O-])NC(=O)C(Cc1cccc2ccccc12)Cc1cccc2ccccc12)[C@@H](O)CC(=O)NCCN1CCOCC1	
90	CSC(=NC#N)NCCCC[C@H](NC(=O)C(Cc1cccc2ccccc12)Cc1cccc2ccccc12)C(=O)N[C@@H](CC(C)C)[C@@H](O)CC(=O)NCCN1CCOCC1	
140	CC[C@H](C)CNC(=O)C[C@H](O)[C@H](CC(C)C)NC(=O)[C@H](CCCCNC(=S)NC)NC(=O)C(Cc1ccccc1)Cc1cccc2ccccc12 (stereo partly shown)	
91	C=CCCCC(NC(=O)C(Cc1cccc2ccccc12)Cc1cccc2ccccc12)C(=O)N[C@@H](CC(C)C)[C@@H](O)CC(=O)N[C@@H](CC(C)C)C(=O)NCc1ccccc1 (single isomer, unassigned; isomer a) [Example 48, DNMA-NHCH(CH2 CH2 CH2 CH=CH2)CO-STA-LEU-NHCH2 Ph (ISOMER A)]	
3500	C=CCCCC(NC(=O)C(Cc1cccc2ccccc12)Cc1cccc2ccccc12)C(=O)N[C@@H](CC(C)C)[C@@H](O)CC(=O)N[C@@H](CC(C)C)C(=O)NCc1ccccc1 (single isomer, unassigned; isomer b) [Example 49, DNMA-NHCH(CH2 CH2 CH2 CH=CH2)CO-STA-LEU-NHCH2 Ph (ISOMER B)]	
60	CC[C@H](C)CNC(=O)C[C@H](O)[C@H](CC(C)C)NC(=O)[C@H](CCCCNC(=O)OC)NC(=O)C(Cc1cccc2ccccc12)Cc1cccc2ccccc12 [Example 42, DNMA-LYS(CO2 CH3)-STA-NHCH2 CH(CH3)CH2 CH3]	
